Assay results reported in US20170145472A1, “METHOD OF DETECTING HELICASE ACTIVITY” (University of Macau, priority 2015, published 2017).

Tests used:
[1] = Photophysical measurement; assay type: physicochemical; settings: for Quantum yield: reference [Ru(bpy)3][PF6]2 in degassed acetonitrile
Procedure: Emission spectra and lifetime measurements for complexes were performed on a PTI TimeMaster C720 Spectrometer (Nitrogen laser: pulse output 337 nm) fitted with a 380 nm filter. Error limits were estimated: λ (±1 nm); τ (±10%); φ (±10%). All solvents used for the lifetime measurements were degassed using three cycles of freeze-vac-thaw.
Luminescence quantum yields were determined using the method of Demas and Crosby [Ru(bpy)3][PF6]2 in degassed acetonitrile as a standard reference solution (Φr=0.062) and calculated according to the following equation:
Φs=Φr(Br/Bs)(ns/nr)^2(Ds/Dr) • where the subscripts s and r refer to sample and reference standard solution respectively, n is the refractive index of the solvents, D is the integrated intensity, and Φ is the luminescence quantum yield. The quantity B was calculated by B=1−10^−AL, where A is the absorbance at the excitation wavelength and L is the optical path length.

helicase = molecular target: T1, helicase (Hepatitis C virus genotype 1a, UniProt P27958); experiment: Luminescence response of complexes towards helicase alone; settings: helicase alone, no DNA
T1 construct: upon the addition of 0.8 μM HCV NS3 helicase; purchased Prospec Inc. (Ness-Ziona, Israel)
Text: M G-quadruplex DNA over helicase, IG4/Ihelicase refers to the ratio of the lunminscent response of PS2. M G-quadruplex DNA over helicase.

PS2.M G-quadruplex DNA = experiment: Luminescence response of Ir(III) complexes towards different forms of DNA; assay type: binding; settings: complex 1 μM, DNA 5 μM; PS2.M G-quadruplex vs ds17 and CCR5-DEL
Text: M G-quadruplex DNA (G4) over dsDNA (ds17) and ssDNA (CCRS-DEL), in particular IG4/IdsDNA refers to the ratio of the luminescent response of PS2. M G-quadruplex DNA over dsDNA (ds17); and IG4/IssDNA refers to the ratio of the luminescent response of PS2. M G-quadruplex DNA over ssDNA(CCR5-DEL).
M G-quadruplex DNA over dsDNA (ds17) and ssDNA (CCRS-DEL), in particular IG4/IdsDNA refers to the ratio of the luminescent response of PS2. M G-quadruplex DNA over dsDNA (ds17); and IG4/IssDNA refers to the ratio of the luminescent response of PS2. M G-quadruplex DNA over ssDNA(CCR5-DEL).
The G-quadruplex DNA-forming sequence (PS2. M) was annealed in Tris-HCl buffer (20 mM Tris, 100 mM KCl, pH 7.0) and were stored at −20° C. or less than −20° C. before use. Complex 1-17 (1 μM) was added to 5 μM of ssDNA, dsDNA or PS2. M G-quadruplex DNA in Tris-HCl buffer (20 mM Tris, pH 7.0).

HCV NS3 helicase = molecular target: T2, HCV NS3 helicase (Hepatitis C virus genotype 1a, UniProt P27958); experiment: G-quadruplex-based luminescent HCV NS3 helicase activity assay; assay type: biochemical; settings: for inhibitory activity towards HCV NS3 helicase: 10 μM inhibitor, 0.8 μM helicase
T2 construct: upon the addition of 0.8 μM HCV NS3 helicase; purchased Prospec Inc. (Ness-Ziona, Israel)
Procedure: The random-coil oligonucleotides ON1 (100 μM) and ON2 (100 μM) were incubated in Tris buffer (20 mM, pH 7.0). The solution was heated at a temperature of 72-98° C., in particular 95° C., for at least 30 seconds in particular 10 min, cooled to room temperature at 0.1° C./s, and further incubated at room temperature for 1 hour to ensure formation of the duplex substrate. The annealed product was stored at −20° C. before use. For assaying enzyme activity, 50 μL of Tris buffered solution (5 mM Tris-HCl, 5 mM NaCl, 1 mM MgCl2, 1 mM ATP, 0.1 mM DTT, pH 7.9) with the indicated concentrations of helicase or S1, Endo, DpnI, ExoI, EcoRI, RNase, DNase, and SSB were added to a solution containing the duplex substrate (0.25 μM). The mixture was heated to 37° C. for at least 30 minutes, e.g. 2 hours, to allow the indicated enzymes-catalyzed unwinding of the duplex substrate to take place. The duplex unwinding reaction was quenched by the addition of EDTA at a final concentration of 20 mM, and the mixture was subsequently diluted using Tris buffer (20 mM Tris, 20 mM KCl, 150 mM NH4Ac, pH 7.2) to a final volume of 500 μL. […] Emission spectra were recorded in the 500-720 nm range using an excitation wavelength of 360 nm.
For the detection of helicase activity in cell extract, 50 μL of Tris buffered solution (5 mM Tris-HCl, 5 mM NaCl, 1 mM MgCl2, 1 mM ATP, 0.1 mM DTT, pH 7.9) and the indicated concentrations of helicase were added to a solution containing the duplex substrate (0.25 μM) and cell extract. The mixture was heated to 37° C. for at least 30 minutes, e.g. 2 hours, to allow the helicase-catalyzed unwinding of the duplex substrate to take place. The duplex unwinding reaction was quenched by the addition of EDTA at a final concentration of 20 mM, and the mixture was subsequently diluted using Tris buffer (20 mM Tris, 20 mM KCl, 150 mM NH4Ac, pH 7.2) to a final volume of 500 μL. Finally, 1 μM of complex 9 was added to the mixture. Emission spectra were recorded in the 500-720 nm range using an excitation wavelength of 360 nm.

T2 sequence (P27958 1027-1657): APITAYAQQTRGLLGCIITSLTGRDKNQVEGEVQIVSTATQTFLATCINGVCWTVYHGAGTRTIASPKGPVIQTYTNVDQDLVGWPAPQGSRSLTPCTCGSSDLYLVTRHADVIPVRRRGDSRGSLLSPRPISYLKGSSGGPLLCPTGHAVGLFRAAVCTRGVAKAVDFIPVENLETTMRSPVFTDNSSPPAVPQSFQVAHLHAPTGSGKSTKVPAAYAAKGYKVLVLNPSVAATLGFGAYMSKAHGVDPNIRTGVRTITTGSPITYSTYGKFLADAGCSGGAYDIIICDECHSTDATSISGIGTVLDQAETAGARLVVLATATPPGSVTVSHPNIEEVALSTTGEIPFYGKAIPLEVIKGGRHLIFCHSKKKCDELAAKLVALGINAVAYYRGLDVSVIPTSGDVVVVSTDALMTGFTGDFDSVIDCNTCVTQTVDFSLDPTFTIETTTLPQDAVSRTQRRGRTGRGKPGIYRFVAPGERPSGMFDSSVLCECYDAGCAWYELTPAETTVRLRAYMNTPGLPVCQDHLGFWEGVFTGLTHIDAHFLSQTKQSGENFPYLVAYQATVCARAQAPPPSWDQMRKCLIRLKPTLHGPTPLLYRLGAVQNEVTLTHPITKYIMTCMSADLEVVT
T1 sequence (P27958 1027-1657): as above

Compound | Lifetime [1] [μs] | λem [1] [nm] | Quantum yield [1] | other results
F[P-](F)(F)(F)(F)F.c1ccc(-c2ccc3ccc4ccc(-c5ccccc5)[n+]5c4c3[n+]2[Ir-3]523([c]4ccccc4-n4ccc[n+]42)[c]2ccccc2-n2ccc[n+]23)cc1 [Complex 1] | 3.29 | 629 | 0.13 | luminescence enhancement in the presence of helicase only (helicase): enhanced in the presence of helicase only
Cc1c(C)c2cccnc2c2ncccc12.Cc1c[c-]c(-c2ccccn2)cc1.Cc1c[c-]c(-c2ccccn2)cc1.F[P-](F)(F)(F)(F)F.[Ir+3] [Complex 2] | 0.74 | 577 | 0.057 | luminescence enhancement in the presence of helicase only (helicase): enhanced in the presence of helicase only
Cc1cccc2[n+]1[Ir-3]13([c]4ccccc4-2)([c]2ccccc2-c2cccc(C)[n+]21)[n+]1ccc(-c2ccccc2)c2ccc4c(-c5ccccc5)cc[n+]3c4c21.F[P-](F)(F)(F)(F)F [Complex 5] | 1.23 | 590 | 0.12 | selectivity of luminescence response for G-quadruplex DNA over dsDNA and ssDNA (PS2.M G-quadruplex DNA): non-selective for G-quadruplex DNA
F[P-](F)(F)(F)(F)F.[Ir+3].[c-]1ccccc1-c1ncco1.[c-]1ccccc1-c1ncco1.c1ccc(-c2ccccn2)nc1 [Complex 6] | 0.28 | 580 | 0.089 | selectivity of luminescence response for G-quadruplex DNA over dsDNA and ssDNA (PS2.M G-quadruplex DNA): non-selective for G-quadruplex DNA
Clc1cc2cccnc2c2ncccc12.F[P-](F)(F)(F)(F)F.[Ir+3].[c-]1ccccc1-c1ccc2ccccc2n1.[c-]1ccccc1-c1ccc2ccccc2n1 [Complex 7] | 1.34 | 571 | 0.056 | selectivity of luminescence response for G-quadruplex DNA over dsDNA and ssDNA (PS2.M G-quadruplex DNA): selective response for G-quadruplex DNA; luminescence enhancement in the presence of helicase only (helicase): not showing any luminescence enhancement towards helicase
Clc1cc[n+]2c3c1ccc1c(Cl)cc[n+](c13)[Ir-3]213([c]2ccccc2-c2ccc4ccccc4[n+]21)[c]1ccccc1-c1ccc2ccccc2[n+]13.F[P-](F)(F)(F)(F)F [Complex 10] | 2.89 | 590 | 0.086 | 
Cc1ccc2ccc3ccc(C)[n+]4c3c2[n+]1[Ir-3]412([c]3ccccc3-c3ccc4ccccc4[n+]31)[c]1ccccc1-c1ccc3ccccc3[n+]12.F[P-](F)(F)(F)(F)F [Complex 11] | 1.96 | 570 | 0.087 | 
Cc1cc(-c2ccccc2)c2ccc3c(-c4ccccc4)cc(C)[n+]4c3c2[n+]1[Ir-3]412([c]3ccccc3-c3ccc4ccccc4[n+]31)[c]1ccccc1-c1ccc3ccccc3[n+]12.F[P-](F)(F)(F)(F)F [Complex 12] | 1.84 | 575 | 0.063 | 
F[P-](F)(F)(F)(F)F.c1cc[c]2c(c1)-c1ccc3ccccc3[n+]1[Ir-3]213([c]2ccccc2-c2ccc4ccccc4[n+]21)[n+]1cccc2c4nccnc4c4ccc[n+]3c4c21 [Complex 13] | 4.61 | 568 | 0.067 | 
F[P-](F)(F)(F)(F)F.c1ccc(-c2cc[n+]3c(c2)-c2cc(-c4ccccc4)cc[n+]2[Ir-3]324([c]3ccccc3-c3ccc5ccccc5[n+]32)[c]2ccccc2-c2ccc3ccccc3[n+]24)cc1 [Complex 14] | 4.586 | 560 | 0.15 | 
Clc1cc2ccc[n+]3c2c2c1ccc[n+]2[Ir-3]312([c]3ccccc3-c3[nH]c4ccccc4[n+]31)[c]1ccccc1-c1[nH]c3ccccc3[n+]12.F[P-](F)(F)(F)(F)F [Complex 15] | 2.71 | 620 | 0.092 | 
Clc1cc2cccnc2c2ncccc12.F[P-](F)(F)(F)(F)F.[Ir+3].[c-]1ccccc1-c1ccccn1.[c-]1ccccc1-c1ccccn1 [Complex 17] | 2.87 | 608 | 0.078 | 
Brc1c(Br)c(Br)c2n[nH]nc2c1Br [TBBT, reference compound] |  |  |  | inhibitory activity towards HCV NS3 helicase (HCV NS3 helicase): displayed inhibitory activity
O=C(O)c1cn(C2CC2)c2cc(N3CCNCC3)c(F)cc2c1=O [ciprofloxacin, reference compound] |  |  |  | decrease of luminescence signal of the system (HCV NS3 helicase; 10 μM of ciprofloxacin): about 40%; luminescence signal of the system in the presence of inhibitor (HCV NS3 helicase; ciprofloxacin 0, 1, 2.5, 5, 10, 20 μM): diminished in the presence of ciprofloxacin in a dose-dependent manner
Cc1ccc(C(=O)Nc2ccc(S(=O)(=O)O)c3cc(S(=O)(=O)O)cc(S(=O)(=O)O)c23)cc1NC(=O)c1cccc(NC(=O)Nc2cccc(C(=O)Nc3cc(C(=O)Nc4ccc(S(=O)(=O)O)c5cc(S(=O)(=O)O)cc(S(=O)(=O)O)c45)ccc3C)c2)c1 [suramin, reference compound] |  |  |  | inhibitory activity towards HCV NS3 helicase (HCV NS3 helicase): displayed inhibitory activity
single-stranded DNA binding protein: single-stranded DNA binding protein (SSB) purchased from New England Biolabs |  |  |  | response of the complex 9+G-quadruplex DNA system to other enzymes or proteins (emission intensity) (HCV NS3 helicase; selectivity test, enzyme in place of helicase): relatively low emission enhancement
